Test results published in US20080057140A1, “Use of a Lignan for the Manufacture of a Composition for Preventing or Alleviating of Symptoms Relating to Estrogen Deficiency” (priority 2005, published 2008).

Experiments:
[1] = disclosed in WO 00/59946; cited from earlier work
[2] = plasma enterolactone after 7-hydroxymatairesinol capsules in human subjects; format: in vivo; conditions: healthy male volunteers, capsules 315 mg/day (3 x 105 mg), 29 days, FIG. 2
Experimental: The data for experimental days 1 and 29 is shown. On the x-axis, the time (hrs) after the first 105 mg dose is shown. The arrows denote the administration of the three 105 mg HMRlignan™ (hydroxymatairesinol) doses during the test days 1 and 29. N=6.
In brief, healthy male volunteers ingested capsule preparation of 7-hydroxymatairesinol, at total daily dose of 315 mg, divided in three 105 mg portion for morning, afternoon and evening dose. The subjects ingested the product continuously for 29 days. […] The levels were measured with a high-performance liquid chromatography coupled with tandem mass spectrometer system (Applied Biosystems Inc.).

circulating enterolactone concentration [2]: sustained increase
Compound: COc1cc(C[C@H]2C(=O)OC[C@@H]2[C@H](O)c2ccc(O)c(OC)c2)ccc1O [7-hydroxymatairesinol]
conversion to enterolactone in vivo [1]: efficiently converted to enterolactone
